{"source": "patent US20170326066A1", "about": "“METHOD OF TREATING HYPERTENSION” (Ezra Pharma LLC, priority 2016, published 2017)", "origin": "cited, not measured here"}
{"smiles": "CCCCC(=O)N(Cc1ccc(-c2ccccc2-c2nnn[nH]2)cc1)[C@H](C(=O)O)C(C)C", "note": "[valsartan]", "values": [{"measurement": "peak plasma concentration reduced to", "setting": "by 12 hours", "value": "approximately 65%"}, {"measurement": "time by which plasma levels reach very low level", "setting": "following Cmax", "value": "10 to 12", "unit": "h"}, {"measurement": "half-life", "setting": "in vivo", "value": "about 6 hours"}, {"measurement": "Tmax", "setting": "oral administration", "value": "2 to 4", "unit": "h"}, {"measurement": "absolute bioavailability", "setting": "oral administration", "value": "about 25%"}, {"measurement": "absolute bioavailability (range)", "setting": "oral administration", "value": "10-35%"}]}
